Measurements published in ChEMBL document CHEMBL1201862, “PubChem BioAssay data set” (2004).
The source made the active and inactive calls.

Experiments:
[1] = viability of uninfected HEp-2 cells – cell-based, HTS, cytotoxicity control for RSV inhibitor project, dose response (AID 2410); type: functional; details: human respiratory syncytial virus
cells [2] = experiment: cells
NS3 = NS3 (Hepatitis C virus, UniProt A3EZJ3); experiment: PubChem AID 2173; set-up: species or system Hepacivirus hominis
NS3, sequence (A3EZJ3 whole entry): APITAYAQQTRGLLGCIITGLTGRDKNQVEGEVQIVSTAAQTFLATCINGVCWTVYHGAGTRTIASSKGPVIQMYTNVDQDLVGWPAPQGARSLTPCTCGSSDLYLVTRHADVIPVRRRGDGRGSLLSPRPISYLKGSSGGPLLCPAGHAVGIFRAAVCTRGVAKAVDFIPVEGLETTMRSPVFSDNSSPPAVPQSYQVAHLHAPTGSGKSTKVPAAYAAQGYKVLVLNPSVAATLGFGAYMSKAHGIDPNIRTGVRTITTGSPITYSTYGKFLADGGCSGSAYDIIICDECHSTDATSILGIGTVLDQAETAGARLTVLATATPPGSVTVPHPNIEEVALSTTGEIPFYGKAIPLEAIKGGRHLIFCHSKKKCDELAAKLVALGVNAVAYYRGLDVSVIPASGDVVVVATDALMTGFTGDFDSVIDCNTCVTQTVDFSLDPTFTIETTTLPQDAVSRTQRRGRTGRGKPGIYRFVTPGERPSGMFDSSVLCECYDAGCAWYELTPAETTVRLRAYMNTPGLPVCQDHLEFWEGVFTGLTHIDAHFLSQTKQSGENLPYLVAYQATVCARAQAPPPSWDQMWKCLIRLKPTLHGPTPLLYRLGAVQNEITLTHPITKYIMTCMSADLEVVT

Leucine aminopeptidase = biological target: T1, Leucine aminopeptidase (Plasmodium falciparum 3D7, UniProt Q8IL11); experiment: P. falciparum M17LAP inhibitors, primary screen, biochemical, fluorogenic H-Leu-NHMec substrate, 1536-well (AID 1619); type: functional
T1 sequence (Q8IL11 whole entry): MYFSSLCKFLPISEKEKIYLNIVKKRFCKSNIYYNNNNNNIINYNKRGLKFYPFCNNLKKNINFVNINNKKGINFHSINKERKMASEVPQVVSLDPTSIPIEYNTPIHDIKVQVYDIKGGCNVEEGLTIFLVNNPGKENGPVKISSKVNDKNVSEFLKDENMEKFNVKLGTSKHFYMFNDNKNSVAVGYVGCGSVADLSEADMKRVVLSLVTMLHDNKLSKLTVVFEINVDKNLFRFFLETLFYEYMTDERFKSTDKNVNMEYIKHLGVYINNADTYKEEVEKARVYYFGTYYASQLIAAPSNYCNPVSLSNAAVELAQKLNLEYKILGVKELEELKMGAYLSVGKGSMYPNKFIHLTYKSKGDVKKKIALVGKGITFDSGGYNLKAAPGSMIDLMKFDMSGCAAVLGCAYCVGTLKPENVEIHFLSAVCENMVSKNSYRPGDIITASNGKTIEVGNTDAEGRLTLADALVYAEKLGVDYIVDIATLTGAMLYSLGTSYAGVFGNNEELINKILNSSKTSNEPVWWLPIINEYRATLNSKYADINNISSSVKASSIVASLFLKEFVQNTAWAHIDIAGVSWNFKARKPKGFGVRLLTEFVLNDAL

[3] = biological target: T2, Microphthalmia-associated transcription factor (Homo sapiens, UniProt O75030); experiment: reducers of TRPM1 reporter luminescence, concentration series – cell-based, SK-MEL-5, cherry-picked, set 3, MITF inhibitor project, dose response (AID 493073); type: functional;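 also: SK-MEL-5 melanoma cells with luciferase driven by the MITF target TRPM1 promoter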
T2 sequence (O75030 whole entry): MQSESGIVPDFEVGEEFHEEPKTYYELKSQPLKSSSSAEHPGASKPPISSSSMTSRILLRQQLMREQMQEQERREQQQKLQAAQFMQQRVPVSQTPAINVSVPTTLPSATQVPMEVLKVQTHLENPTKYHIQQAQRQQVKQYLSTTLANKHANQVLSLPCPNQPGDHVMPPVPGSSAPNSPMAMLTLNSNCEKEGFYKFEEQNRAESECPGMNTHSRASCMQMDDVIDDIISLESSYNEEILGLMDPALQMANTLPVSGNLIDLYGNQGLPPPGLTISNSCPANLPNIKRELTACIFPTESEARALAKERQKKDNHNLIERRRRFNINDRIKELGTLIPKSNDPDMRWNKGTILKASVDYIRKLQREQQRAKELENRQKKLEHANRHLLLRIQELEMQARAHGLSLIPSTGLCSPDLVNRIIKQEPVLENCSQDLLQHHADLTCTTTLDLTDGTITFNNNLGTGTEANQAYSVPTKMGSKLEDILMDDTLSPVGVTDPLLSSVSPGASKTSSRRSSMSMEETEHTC

[4] = biological target: Luciferin 4-monooxygenase (Photinus pyralis, UniProt P08659); experiment: Counter Screen for Luciferase-based Assay Positives. [Related pubchem assays: 620, 618, 411 ]
Luciferin 4-monooxygenase, sequence (P08659 whole entry): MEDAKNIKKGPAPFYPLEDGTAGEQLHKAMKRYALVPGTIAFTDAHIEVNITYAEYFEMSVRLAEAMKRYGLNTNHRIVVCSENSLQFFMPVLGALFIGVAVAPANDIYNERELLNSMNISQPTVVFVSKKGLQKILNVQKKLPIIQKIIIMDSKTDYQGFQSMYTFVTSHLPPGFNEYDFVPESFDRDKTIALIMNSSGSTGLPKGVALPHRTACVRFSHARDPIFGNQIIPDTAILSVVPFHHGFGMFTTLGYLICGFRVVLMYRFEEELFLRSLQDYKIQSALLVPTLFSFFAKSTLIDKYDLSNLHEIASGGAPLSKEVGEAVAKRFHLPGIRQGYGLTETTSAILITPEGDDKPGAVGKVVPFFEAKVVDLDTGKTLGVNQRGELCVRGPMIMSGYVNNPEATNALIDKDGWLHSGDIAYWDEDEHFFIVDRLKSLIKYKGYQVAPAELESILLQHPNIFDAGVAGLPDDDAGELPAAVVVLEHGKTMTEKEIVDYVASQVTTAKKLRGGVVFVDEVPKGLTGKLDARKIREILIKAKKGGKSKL

BJ [5] = experiment: BJ-TERT fibroblast viability loss – cell-based, RAS-independent, luminescence, dose response (AID 1933); type: functional; details: Homo sapiens
cells [6] = type: functional, cell-based
[7] = alpha-synuclein stem-loop translation blockers – luminescence, H4 neuroglioblastoma cells, dose confirmation, confirmation (AID 2454); type: functional, cell-based;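 also: H4 neuroglioblastoma cells carrying an alpha-synuclein 5'UTR luciferase reporter; potency for inhibition of the luciferase signal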
BJ [8] = experiment: cells; type: functional, cell-based; details: Homo sapiens
cells [9] = type: functional, cell-based; remark: listed apart in the source
BJ [10] = experiment: BJ-TERT-LT-ST fibroblast viability loss – cell-based, RAS-independent, luminescence, dose response (AID 1935); type: functional; details: Homo sapiens;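 also: BJ fibroblasts immortalized with TERT plus LT and ST oncogenes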
[11] = luciferase reporter signal suppression in cells – H4 neuroglioma cells, luminescence, dose response (AID 1990); type: functional, cell-based
[12] = alpha-synuclein stem-loop luciferase translation blockers – H4 neuroglioma cells, luminescence, confirmation (AID 1988); type: functional, cell-based
[13] = HEK-293T viability loss after treatment – luminescence, T-cell screen hits, cytotoxicity control for TCR NF-kB inhibitor project, dose response (AID 489026); type: functional, cell-based;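 also: cells exposed to compound about 14 hours before the viability readout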
[14] = luciferase reporter signal reduction – luminescence, H4-C neuroglioblastoma cells, dose response (AID 2458); type: functional, cell-based;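 also: H4 neuroglioblastoma cells stably carrying a luciferase reporter gene fusion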
[15] = DRD fibroblast viability loss – cell-based, non-viral oncogenic, luminescence, dose response (AID 1934); type: functional; details: Homo sapiens
[16] = biological target: T3, Nuclear receptor subfamily 0 group B member 1 (Homo sapiens, UniProt P51843); type: functional, cell-based;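 also: HEK293T cells transfected with SF-1 and DAX-1 plus StAR promoter luciferase reporter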
T3 sequence (P51843 whole entry): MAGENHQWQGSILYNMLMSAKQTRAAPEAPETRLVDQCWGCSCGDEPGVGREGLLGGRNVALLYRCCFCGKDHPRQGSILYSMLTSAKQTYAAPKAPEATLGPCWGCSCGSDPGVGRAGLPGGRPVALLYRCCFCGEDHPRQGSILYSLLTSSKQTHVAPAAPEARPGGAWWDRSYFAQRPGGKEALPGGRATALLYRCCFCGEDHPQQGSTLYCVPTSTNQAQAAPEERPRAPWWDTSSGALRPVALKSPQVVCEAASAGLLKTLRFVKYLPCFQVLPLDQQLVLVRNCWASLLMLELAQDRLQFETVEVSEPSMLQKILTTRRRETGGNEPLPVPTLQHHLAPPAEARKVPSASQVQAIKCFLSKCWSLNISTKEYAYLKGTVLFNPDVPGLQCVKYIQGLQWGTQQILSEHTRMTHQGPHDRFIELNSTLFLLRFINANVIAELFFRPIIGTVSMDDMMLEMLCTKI

Paired box protein Pax-8 = Paired box protein Pax-8 (Homo sapiens, UniProt Q06710); experiment: PAX8 transcriptional activity inhibition in RMG-I – RMG-I cells, luciferase, cherry-pick, dose response (AID 687027); type: functional, cell-based;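 also: luciferase reporter driven by Pax8 target thyroperoxidase promoter measured by SteadyGlo luminescence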
Paired box protein Pax-8, sequence (Q06710 whole entry, the tested form may be a part): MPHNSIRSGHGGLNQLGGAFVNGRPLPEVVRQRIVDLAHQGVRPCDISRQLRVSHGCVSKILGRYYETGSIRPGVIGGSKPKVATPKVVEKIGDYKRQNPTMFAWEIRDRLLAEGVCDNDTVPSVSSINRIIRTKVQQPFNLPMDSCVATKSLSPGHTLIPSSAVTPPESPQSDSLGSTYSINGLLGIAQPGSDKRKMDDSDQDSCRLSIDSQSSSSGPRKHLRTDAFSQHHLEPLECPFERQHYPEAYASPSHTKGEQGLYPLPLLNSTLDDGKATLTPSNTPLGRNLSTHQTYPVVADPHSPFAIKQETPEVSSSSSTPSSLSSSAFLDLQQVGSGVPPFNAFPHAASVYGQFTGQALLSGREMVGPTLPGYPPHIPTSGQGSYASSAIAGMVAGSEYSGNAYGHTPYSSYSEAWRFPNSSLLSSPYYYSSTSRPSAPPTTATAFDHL

[17] = off-target signal loss in HeLa-CEM21 co-culture – HeLa F-luc CTL cells, cherry-picked, counter-screen for HIV-1 Env fusion inhibitor project, dose response (AID 652040); type: functional, cell-based;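 also: potency for signal decrease marking cytotoxic or nonspecific inhibition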
[18] = blockers of HIV-1 envelope-mediated cell-cell fusion – cherry-pick, dose response (AID 652057); type: functional, cell-based
[19] = blockers of HIV-1 ZM109 envelope-driven cell-cell fusion – HeLa effector, CEM target cells, luciferase, cherry-pick, dose response (AID 652058); type: functional, cell-based;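 also: luciferase signal from HIV-1 Env mediated cell-cell fusion of effector and target cells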
HT-1080 = experiment: HT1080 cell viability loss – fluorescence readout (AID 620); type: functional, cell-based; details: Homo sapiens
[20] = HIV-1 AD8 envelope cell-cell fusion blockers – cherry-pick, dose response (AID 652062); type: functional, cell-based;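 also: luciferase signal from cell-cell fusion driven by HIV-1 clade B AD8 Env; potency is for inhibitors of fusion seen as a drop in luminescence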
[21] = HEK-293T cell viability reduction – luminescence, B-cell screen hits, cytotoxicity control for BCR NF-kB inhibitor project, dose response (AID 489021); type: functional, cell-based;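 also: HEK-293T cells carrying an NF-kB luciferase reporter; cells exposed to compound for about 14 hours before viability readout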
[22] = Luminescence Cell-Based Dose Response HTS to Identify Inhibitors of 5'UTR Stem-Loop Driven Prion Protein mRNA Translation in H4 Neuroglioblastoma Cells. [Related pubchem assays: 1827 (Project Summary), 1813 (Primary HTS)]; type: functional
Large T antigen = Large T antigen (Simian virus 40, UniProt P03070); type: functional, Betapolyomavirus macacae;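 also: Confirmatory-stage PubChem screen for compounds that inhibit SV40 T antigen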
Large T antigen, sequence (P03070 whole entry): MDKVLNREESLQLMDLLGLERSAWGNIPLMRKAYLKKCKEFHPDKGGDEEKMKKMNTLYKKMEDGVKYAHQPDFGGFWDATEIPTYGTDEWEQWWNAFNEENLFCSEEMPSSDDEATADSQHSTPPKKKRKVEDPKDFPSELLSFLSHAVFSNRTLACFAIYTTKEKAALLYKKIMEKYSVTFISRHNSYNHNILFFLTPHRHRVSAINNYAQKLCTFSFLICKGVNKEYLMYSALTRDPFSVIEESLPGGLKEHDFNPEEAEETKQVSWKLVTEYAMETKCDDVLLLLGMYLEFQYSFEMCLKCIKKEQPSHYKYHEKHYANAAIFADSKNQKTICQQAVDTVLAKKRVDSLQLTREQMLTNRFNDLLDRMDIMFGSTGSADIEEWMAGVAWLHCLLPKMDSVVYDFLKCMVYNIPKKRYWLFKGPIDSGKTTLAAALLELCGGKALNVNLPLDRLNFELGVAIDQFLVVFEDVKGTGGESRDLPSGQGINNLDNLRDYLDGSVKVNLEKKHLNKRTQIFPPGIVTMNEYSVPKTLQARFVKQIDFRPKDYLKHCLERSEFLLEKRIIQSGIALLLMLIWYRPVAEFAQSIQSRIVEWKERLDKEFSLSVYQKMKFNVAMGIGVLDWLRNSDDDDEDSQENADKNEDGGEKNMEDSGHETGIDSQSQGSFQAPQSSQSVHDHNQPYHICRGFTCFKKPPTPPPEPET

[23] = biological target: T4, Long-chain-fatty-acid--AMP ligase FadD28 (Mycobacterium tuberculosis, UniProt P9WQ59); experiment: Fluorescence polarization aasay to screen for inhibitors that compete for the binding of FadD28 to a bisubstrate Measured in Biochemical System Using Plate Reader - 2147-01_Inhibitor_Dose_CherryPick_Activity.; type: functional, Mycobacterium tuberculosis H37Rv
T4 sequence (P9WQ59 whole entry): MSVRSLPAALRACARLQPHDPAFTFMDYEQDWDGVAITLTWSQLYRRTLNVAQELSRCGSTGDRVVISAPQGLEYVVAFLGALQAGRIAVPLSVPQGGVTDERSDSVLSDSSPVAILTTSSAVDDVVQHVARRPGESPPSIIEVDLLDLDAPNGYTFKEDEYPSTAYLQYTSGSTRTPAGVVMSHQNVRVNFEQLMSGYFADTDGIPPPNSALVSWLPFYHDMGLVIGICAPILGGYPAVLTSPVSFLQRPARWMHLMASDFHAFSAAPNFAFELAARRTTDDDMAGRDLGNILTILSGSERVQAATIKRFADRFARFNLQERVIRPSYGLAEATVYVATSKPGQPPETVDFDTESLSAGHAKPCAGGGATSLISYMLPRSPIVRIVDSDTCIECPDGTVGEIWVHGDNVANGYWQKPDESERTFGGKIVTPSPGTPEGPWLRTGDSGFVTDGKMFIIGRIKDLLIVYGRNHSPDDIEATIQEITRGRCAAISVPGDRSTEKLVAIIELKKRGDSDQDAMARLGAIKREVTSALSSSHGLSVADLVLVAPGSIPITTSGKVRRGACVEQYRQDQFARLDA

Bcl-2-like protein 10 = Bcl-2-like protein 10 (Homo sapiens, UniProt Q9HD36); experiment: Bcl-B/TR3 peptide binding disruption – biochemical, fluorescence polarization, FITC-TR3 peptide, selectivity assay for Bfl-1 inhibitor project, primary screen (AID 748);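 also: fluorescence polarization from a fluorescein-labelled TR3 peptide binding purified Bcl-B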
Bcl-2-like protein 10, sequence (Q9HD36 whole entry): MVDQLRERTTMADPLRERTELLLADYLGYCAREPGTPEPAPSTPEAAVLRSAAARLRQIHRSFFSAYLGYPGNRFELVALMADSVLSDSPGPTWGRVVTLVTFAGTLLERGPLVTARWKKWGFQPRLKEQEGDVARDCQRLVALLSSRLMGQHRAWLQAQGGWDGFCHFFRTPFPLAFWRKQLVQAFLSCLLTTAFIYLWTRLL

Bcl-2-related protein A1 [24] = biological target: T5, Bcl-2-related protein A1 (Mus musculus, UniProt Q07440); experiment: small-molecule antagonists of Bfl-1/BH3 interaction – biochemical, TR-FRET, mouse Bfl-1, confirmation (AID 621);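 also: TR-FRET binding of GST-Bfl-1 to FITC-labelled Bid peptide via terbium antibody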
T5 sequence (Q07440 whole entry): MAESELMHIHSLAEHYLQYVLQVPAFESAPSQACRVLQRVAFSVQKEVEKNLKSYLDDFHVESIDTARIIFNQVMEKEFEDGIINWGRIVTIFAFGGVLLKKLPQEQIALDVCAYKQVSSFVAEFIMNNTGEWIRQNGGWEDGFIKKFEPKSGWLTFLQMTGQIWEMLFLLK

[25] = biological target: Glyceraldehyde-3-phosphate dehydrogenase (Homo sapiens, UniProt P04406)
Glyceraldehyde-3-phosphate dehydrogenase, sequence (P04406 whole entry): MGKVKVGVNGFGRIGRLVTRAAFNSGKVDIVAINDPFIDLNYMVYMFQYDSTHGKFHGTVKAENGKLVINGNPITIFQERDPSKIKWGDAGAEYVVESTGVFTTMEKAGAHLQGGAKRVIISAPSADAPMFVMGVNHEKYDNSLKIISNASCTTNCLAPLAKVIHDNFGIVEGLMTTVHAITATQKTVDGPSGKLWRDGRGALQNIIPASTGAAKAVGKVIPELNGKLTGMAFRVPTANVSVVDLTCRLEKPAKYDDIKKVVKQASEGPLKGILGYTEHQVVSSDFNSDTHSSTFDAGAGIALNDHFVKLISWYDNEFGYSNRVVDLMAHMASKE

Bcl-2-related protein A1 [26] = biological target: T5, Bcl-2-related protein A1; experiment: Bfl-1 binding inhibitors, SAR follow-up, biochemical, fluorescence polarization (AID 1070)

COc1ccc(C(c2c(NC(=O)c3ccco3)sc(C)c2C)N2CCOCC2)cc1OC (configuration not stated)
CC50 [1]: 46.5 µM (active) | IC50 (cells [2]): 4.07 µM (active)

N#C/C(=C\c1ccc(O)c(O)c1)S(=O)(=O)c1ccccc1
IC50 (NS3): 4.39 µM (active) | IC50 (Leucine aminopeptidase): 7.23 µM (active)

N#Cc1c(NC(=O)CSc2nnc[nH]2)sc2c1CCCC2
AC50 [3]: 0.599 µM (active) | IC50 (Leucine aminopeptidase): 4.79 µM (active) | EC50 [4]: 27.8 µM (active)

COc1ccc(NC(=O)C(=O)NCC2CCCN2S(=O)(=O)c2ccc(C)cc2)cc1 (configuration not stated)
EC50 (BJ [5]): 0.625 µM (active) | EC50 (cells [6]): 0.06 µM (active) | EC50 [7]: 0.047 µM (active) | EC50 (BJ [8]): 11.7 µM (inconclusive) | IC50 (cells [9]): > 67.5 µM (inactive) | EC50 (BJ [10]): 0.611 µM (active) | EC50 [11]: < 0.1 µM (active) | EC50 [12]: < 0.1 µM (active) | IC50 [13]: > 80 µM (inactive) | EC50 [14]: 0.051 µM (active) | EC50 [15]: 0.484 µM (active) | IC50 [16]: > 67.5 µM (inactive) | AC50 (Paired box protein Pax-8): 0.709 µM (active)

COc1ccc(-c2noc(CCCC(=O)O)n2)cc1
AC50 [17]: 1.59 µM (active) | AC50 [18]: 2.26 µM (active) | AC50 [19]: 1.08 µM (active) | EC50 (HT-1080): > 50 µM (not active) | AC50 [20]: 1.1 µM (active) | IC50 [21]: > 80 µM (inactive) | EC50 [4]: 3.3 µM (active)

Cc1cc(O)nc(N/N=C/c2c(C)nn(-c3ccccc3Cl)c2Cl)n1
CC50 [1]: 21.2 µM (active) | IC50 (cells [2]): 41.5 µM (active)

O=C(CSc1nnc(-c2ccc(Br)cc2)o1)Nc1cccc(C(=O)O)c1
EC50 (cells [6]): 0.934 µM (active) | EC50 [7]: 0.409 µM (active) | EC50 [22]: < 0.1 µM (active) | EC50 [11]: 3.04 µM (active) | EC50 [12]: < 0.1 µM (active) | EC50 [14]: 0.31 µM (active)

O=c1c2c(O)cc(CSc3ccc(Cl)cc3)nc2[nH]n1-c1ccccc1
IC50 (NS3): 5.22 µM (active) | IC50 (Large T antigen): > 100 µM (active) | AC50 [23]: 23.4 µM (active)

Cc1c[nH]c2cccc(OCC(O)CNC(C)(C)C)c12 (configuration not stated)
IC50 (Bcl-2-like protein 10): > 100 µM (inactive)

CC1CN(C2=C(Cl)C(=O)N(c3ccc(Cl)c(Cl)c3)C2=O)CCN1c1ccccc1 (configuration not stated)
IC50 (Bcl-2-related protein A1 [24]): 19.3 µM (active) | IC50 [25]: > 100 µM (not active) | IC50 (Bcl-2-related protein A1 [26]): > 100 µM (not active)
